Measured values taken from patent US10252977B2, “Halogen-substituted phenoxyphenylamidines and the use thereof as fungicides” (priority 2015, dated 2019).
Like-named read-outs stand apart in the source and are kept apart here.

Experiments:
[1] = Hydrolysis stability test in homogeneous aqueous solution; type: physicochemical; conditions: 50° C., 24 hours, first order degradation assumed
Description: The chemical stability towards hydrolysis of the phenylamidines described in the prior art is good but an improved stability may be an advantage during the preparation and formulation processes in a large scale. The improved stability towards hydrolysis was proven by a hydrolysis stability test as described below: To produce a suitable preparation of active compound for the hydrolysis stability test, a 1000 ppm stock solution (1 mg/mL) of active compound in acetonitrile is prepared. Three aliquots of 100 μL are pipetted into HPLC vials and diluted with 750 μL acetonitrile. In each vial 850 μL of the appropriate buffer solution (pH4, pH7 and pH9, CertiPUR, Fa. Merck) is added. The buffer containing HPLC vials are incubated in a heated sample tray at 50° C. for 24 hours. The amount A of the active compound is analyzed by HPLC (UV-peak areas at 210 nm) at eight points in time t: 0 min, 140 min, 350 min, 560 min, 770 min, 980 min, 1190 min, 1400 min. The half-life time (T1/2) of each active compound is calculated via linear regression by using the following equations (first order degradation assumed): In table III the results of the hydrolysis stability test are shown for the compounds (I-01), (I-02), (I-03), (I-04) and (I-05) at various pH-values. […] 337 known from WO2008/110278. […] This increased stability will be of advantage during the preparation and formulation processes in a large scale compared to known amidines. The data are to be seen merely by way of example and are not limiting for the purposes of the invention.

[2] = Log P by HPLC on reversed phase columns (EEC directive 79/831 Annex V.A8); type: physicochemical; conditions: LC-UV
Description: Measurement of Log P values was performed according to EEC directive 79/831 Annex V.A8 by HPLC (High Performance Liquid Chromatography) on reversed phase columns with the following methods: • ^[a] Log P value is determined by measurement of LC-UV, in an acidic range, with 0.1% formic acid in water and acetonitrile as eluent (linear gradient from 10% acetonitrile to 95% acetonitrile). • [b] Log P value is determined by measurement of LC-UV, in a neutral range, with 0.001 molar ammonium acetate solution in water and acetonitrile as eluent (linear gradient from 10% acetonitrile to 95% acetonitrile). […] Lambda-max-values were determined using UV-spectra from 200 nm to 400 nm and the peak values of the chromatographic signals.

[3] = Photolysis stability test; type: physicochemical; conditions: dried film in MTP, irradiated at 30° C. and 480 W/m^2, up to 24 h, first order degradation assumed
Description: The stability towards photolysis of the phenylamidines described in the prior art is good but an improved stability towards photolysis may be an advantage as it could offer a longer lasting efficacy when applied to plants by foliar application. The improved stability towards photolysis was proven by a […] stability test as described below:
To produce a suitable preparation of active compound for the photolysis stability test, a 1000 ppm stock solution (1 mg/mL) of active compound in acetonitrile is prepared. Aliquots of 25 μL of this stock solution are pipetted in three wells of a Bio-one microtiter plate (MTP) UVStar 96 (Fa. Greiner, Art. No. 655801). The MTP is dried overnight in the dark and then irradiated at 30° C. and 480 W/m^2 with a UV irradiation device SUNTEST XLS+ or SUNTEST CPS (Fa. Atlas). The amount A of the active compound is analyzed by HPLC (UV-peak areas at 210 nm) at five points in time t: 0 h, 2 h, 4 h, 6 h, 24 h by using the following method: 200 μL acetonitrile is added in the respective well of the MTP and the MTP is sealed with a Bio-one sealing foil, viewseal 80/140 mm (Fa. Greiner, Art. No. 676070). The MTPs are sonicated for 3 minutes and analysed by HPLC. The half-life time (T1/2) of each active compound is calculated via linear regression by using the following equations (first order degradation assumed): […]
In table IV the results of the photolysis stability test are shown for the compounds (I-01) and (I-02). […] This increased chemical stability towards photolysis will be of advantage as it will offer a longer lasting efficacy when applied to plants by foliar application compared to known amidines. The data are to be seen merely by way of example and are not limiting for the purposes of the invention.

Septoria tritici = assay: In vivo preventive test on Septoria tritici (leaf spot on wheat); conditions: 500 ppm of active ingredient, 24 days after inoculation
Description: (§1) • Solvent: 5% by volume of Dimethyl sulfoxide • 10% by volume of Acetone • Emulsifier: 1 μl of Tween® 80 per mg of active ingredient
(§2) The active ingredients are made soluble and homogenized in a mixture of Dimethyl sulfoxide/Acetone//Tween® 80 and then diluted in water to the desired concentration.
(§3) The young plants of wheat are treated by spraying the active ingredient prepared as described above. Control plants are treated only with an aqueous solution of Acetone/Dimethyl sulfoxide/Tween® 80.
After 24 hours, the plants are contaminated by spraying the leaves with an aqueous suspension of Septoria tritici spores. The contaminated wheat plants are incubated for 72 hours at 18° C. and at 100% relative humidity and then for 21 days at 20° C. and at 90% relative humidity.
The test is evaluated 24 days after the inoculation. 0% means an efficacy which corresponds to that of the control plants while an efficacy of 100% means that no disease is observed.

Pyrenophora teres = assay: In vivo preventive test on Pyrenophora teres (net blotch on barley); conditions: 500 ppm of active ingredient, 14 days after inoculation
Description: as §1, §2
The young plants of barley are treated by spraying the active ingredient prepared as described above. Control plants are treated only with an aqueous solution of Acetone/Dimethyl sulfoxide/Tween® 80.
After 24 hours, the plants are contaminated by spraying the leaves with an aqueous suspension of Pyrenophora teres spores. The contaminated barley plants are incubated for 48 hours at 20° C. and at 100% relative humidity and then for 12 days at 20° C. and at 70-80% relative humidity.
The test is evaluated 14 days after the inoculation. 0% means an efficacy which corresponds to that of the control plants while an efficacy of 100% means that no disease is observed.

Puccinia recondita = assay: In vivo preventive test on Puccinia recondita (brown rust on wheat); conditions: 500 ppm of active ingredient, 11 days after inoculation
Description: as §1, §2, §3
After 24 hours, the plants are contaminated by spraying the leaves with an aqueous suspension of Puccinia recondita spores. The contaminated wheat plants are incubated for 24 hours at 20° C. and at 100% relative humidity and then for 10 days at 20° C. and at 70-80% relative humidity.
The test is evaluated 11 days after the inoculation. 0% means an efficacy which corresponds to that of the control plants while an efficacy of 100% means that no disease is observed.

Phakopsora pachyrhizi = assay: In vivo preventive test on Phakopsora (soybeans); conditions: 7 days after inoculation
Description: To produce a suitable preparation of active compound, 1 part by weight of active compound is mixed with the stated amounts of solvent and emulsifier, and the concentrate is diluted with water to the desired concentration. To test for preventive activity, young plants are sprayed with the preparation of active compound at the stated rate of application. After the spray coating has dried on, the plants are inoculated with an aqueous spore suspension of the causal agent of soybean rust (Phakopsora pachyrhizi) and stay for 24 h without light in an incubation cabinet at approximately 24° C. and a relative atmospheric humidity of 95%. The plants remain in the incubation cabinet at approximately 24° C. and a relative atmospheric humidity of approximately 80% and a day/night interval of 12 h.

soy bean plants = assay: Plant compatibility test using soy bean plants; type: in vivo; conditions: soy bean young plants sprayed at 1000 ppm, evaluated 6 days after application; 0% no damages, 100% totally damaged
Description: Plant Compatibility Test Using Soy Bean Plants • Solvent: 24.5 parts by weight of acetone • 24.5 parts by weight of dimethylacetamide • Emulsifier: 1 part by weight of alkylaryl polyglycol ether To produce a suitable preparation of active compound, 1 part by weight of active compound is mixed with the stated amounts of solvent and emulsifier, and the concentrate is diluted with water to the desired concentration. Young plants are sprayed with the preparation of active compound at the stated application rate. The plants are then placed in a greenhouse at approximately 21° C. and a relative atmospheric humidity of approximately 80%. The test is evaluated 6 days after application and comprises plant damages like leaf deformation, chlorosis, necrosis, shoot damage or stunting. The results are summarized in table V. 0% means no damages are observed, while 100% means that the plants are totally damaged.

[4] = buffer pH 7/acetonitrile, read-out: T1/2 (pH 7) (converted)
[5] = buffer pH 9/acetonitrile, read-out: T1/2 (pH 9) (converted)
[6] = acidic range, 0.1% formic acid in water and acetonitrile as eluent, read-out: LogP [a]
[7] = neutral range, 0.001 molar ammonium acetate solution in water and acetonitrile as eluent, read-out: LogP [b]

Compound	half-life at 58.8 µg/mL [1, 4] [days]	half-life at 58.8 µg/mL [1, 5] [days]	chromatographic logP [2, 6]	half-life [3] [min]	also measured
CCN(C)C=Nc1cc(Cl)c(Oc2ccccc2Br)cc1C [Example I-02, N′-[4-(2-bromophenoxy)-5-chloro-2-methylphenyl]-N-ethyl-N-methylimidoformamide]	2.92	2.67	1.86	> 12000	chromatographic logP [2, 7]: 5.13; efficacy (Septoria tritici): at least 70%; efficacy (Pyrenophora teres): at least 70%; efficacy (Puccinia recondita): at least 70%; efficacy (Phakopsora pachyrhizi; 10 ppm of active ingredient): at least 70%
CCN(C)C=Nc1cc(Cl)c(Oc2ccccc2I)cc1C [Example I-06, N′-[5-chloro-4-(2-iodophenoxy)-2-methylphenyl]-N-ethyl-N-methylimidoformamide]	2.54	2.29	1.81	2040	–
CCN(C)/C=N/c1cc(C)c(Oc2ccccc2F)cc1C [reference compound]	1.04	0.708	–	–	Necrosis in % (soy bean plants): 90%
CCN(C)/C=N/c1cc(Cl)c(Oc2ccccc2F)cc1C [Example I-01, N′-[5-chloro-4-(2-fluorophenoxy)-2-methylphenyl]-N-ethyl-N-methylimidoformamide]	2.79	2.5	1.64	1920	chromatographic logP [2, 7]: 4.56; Necrosis in % (soy bean plants): 50%; efficacy (Phakopsora pachyrhizi; 100 ppm of active ingredient): at least 70%
CCN(C)C=Nc1cc(Cl)c(Oc2ccccc2Cl)cc1C [Example I-03, N′-[5-chloro-4-(2-chlorophenoxy)-2-methylphenyl]-N-ethyl-N-methylimidoformamide]	2.62	2.21	1.55	3540	–
CCN(C)/C=N/c1cc(C)c(Oc2ccccc2)cc1C [Compound no. 1 known from WO2008/110313, reference compound]	1	0.667	–	600	Necrosis in % (soy bean plants): 90%
Cc1cc(Oc2ccccc2Br)c(C(F)(F)F)cc1[N+](=O)[O-] [VI-05, 1-(2-bromophenoxy)-5-methyl-4-nitro-2-(trifluoromethyl)benzene]	–	–	4.64	–	–
CCN(C)C=Nc1cc(C(F)(F)F)c(Oc2ccccc2F)cc1C [Example I-04, N-ethyl-N′-[4-(2-fluorophenoxy)-2-methyl-5-(trifluoromethyl)phenyl]-N-methylimidoformamide]	3.46	3.08	1.72	> 12000	–
CCN(C)C=Nc1cc(C(F)(F)F)c(Oc2ccccc2Br)cc1C [Example I-05, N′-[4-(2-bromophenoxy)-2-methyl-5-(trifluoromethyl)phenyl]-N-ethyl-N-methylimidoformamide]	3.33	2.75	1.9	> 12000	–
Cc1cc(Oc2ccccc2Cl)c(Cl)cc1[N+](=O)[O-] [VI-03, 1-chloro-2-(2-chlorophenoxy)-4-methyl-5-nitrobenzene]	–	–	4.51	–	–

Continued, in another order:

half-life at 58.8 µg/mL [1, 4] [days]	half-life at 58.8 µg/mL [1, 5] [days]	chromatographic logP [2, 6]	half-life [3] [min]	Compound	also measured
–	–	3.68	–	Cc1cc(Oc2ccccc2Br)c(C(F)(F)F)cc1N [VIII-05, 4-(2-bromophenoxy)-2-methyl-5-(trifluoromethyl) aniline]	–
–	–	3.37	–	Cc1cc(Oc2ccccc2Cl)c(Cl)cc1N [VIII-03, 5-chloro-4-(2-chlorophenoxy)-2-methylaniline]	–
